Results reported in article PMC11831560, “Development of the Pyrido[2,3-d]pyrimidin-7(8H)-one Scaffold toward Potent and Selective NUAK1 Inhibitors” (ACS Medicinal Chemistry Letters, 2025).

Tests used:
Experiment in all cases: Kinase panel radiometric filter binding (33P-ATP)
Type in all cases: biochemical
Design in all cases: dose or concentration left out as unconfirmed
[1] = target: ABL (Homo sapiens, UniProt P00519)
Description: (§1) Table S4: AMPKA kinase activity data (ADP-Glo assay)
(§2) Compound pIC50 (Fold selectivity
(§3) Table S5. Kinase selectivity screening for 9 and 24 at 1 µM against a general kinase panel of 140 targets
(§4) in radiometric filter binding assay using 33P-γ−ATP at the MRC PPU International Centre for Kinase
(§5) Profiling, University of Dundee. pIC50 values were determined for compounds with <20% activity
(§6) Kinase activity s.d. pIC50 activity s.d. pIC50

[2] = target: BTK (Homo sapiens, UniProt Q06187)
Sequence of BTK (Q06187 whole entry): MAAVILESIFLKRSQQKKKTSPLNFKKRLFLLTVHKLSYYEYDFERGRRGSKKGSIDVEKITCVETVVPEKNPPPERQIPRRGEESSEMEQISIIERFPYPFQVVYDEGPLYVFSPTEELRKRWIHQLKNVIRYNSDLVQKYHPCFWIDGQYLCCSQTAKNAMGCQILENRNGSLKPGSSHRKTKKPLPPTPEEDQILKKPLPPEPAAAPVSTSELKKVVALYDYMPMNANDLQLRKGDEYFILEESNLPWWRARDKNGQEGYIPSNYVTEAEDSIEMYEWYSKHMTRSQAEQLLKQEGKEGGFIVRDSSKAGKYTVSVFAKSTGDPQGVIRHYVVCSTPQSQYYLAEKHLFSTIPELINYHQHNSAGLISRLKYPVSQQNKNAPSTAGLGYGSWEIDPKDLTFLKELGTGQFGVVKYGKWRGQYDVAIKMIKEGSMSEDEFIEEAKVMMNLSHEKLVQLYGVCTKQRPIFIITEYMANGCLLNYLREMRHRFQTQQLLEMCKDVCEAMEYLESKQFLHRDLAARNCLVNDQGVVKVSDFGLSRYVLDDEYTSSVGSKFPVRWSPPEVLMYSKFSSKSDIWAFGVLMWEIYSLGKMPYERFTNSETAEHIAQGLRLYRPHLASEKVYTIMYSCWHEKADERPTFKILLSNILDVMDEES
Description: as §1, §2, §3, §4, §5, §6

[3] = target: CDK9-Cyclin T1 (Homo sapiens, UniProt P50750)
Description: as §1, §2, §3, §4, §5, §6

[4] = target: CHK1 (Homo sapiens, UniProt O14757)
Sequence of CHK1 (O14757 whole entry): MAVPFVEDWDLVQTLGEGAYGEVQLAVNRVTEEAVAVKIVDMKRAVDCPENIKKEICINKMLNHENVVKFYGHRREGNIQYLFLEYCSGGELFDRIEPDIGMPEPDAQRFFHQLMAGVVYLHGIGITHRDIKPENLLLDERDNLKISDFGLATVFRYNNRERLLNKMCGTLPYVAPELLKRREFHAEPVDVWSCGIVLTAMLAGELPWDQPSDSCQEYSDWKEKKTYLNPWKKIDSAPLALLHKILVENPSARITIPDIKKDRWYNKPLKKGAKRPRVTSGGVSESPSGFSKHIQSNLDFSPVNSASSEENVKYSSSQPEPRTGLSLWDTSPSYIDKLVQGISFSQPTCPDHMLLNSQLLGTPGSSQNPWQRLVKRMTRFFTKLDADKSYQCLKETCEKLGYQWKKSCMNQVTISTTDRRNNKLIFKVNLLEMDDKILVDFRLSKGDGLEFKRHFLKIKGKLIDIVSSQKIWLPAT
Description: as §1, §2, §3, §4, §5, §6

[5] = target: EPH-A2 (Homo sapiens, UniProt P29317)
Description: as §1, §2, §3, §4, §5, §6

[6] = target: ERK1 (Homo sapiens, UniProt P27361)
Description: as §1, §2, §3, §4, §5, §6

[7] = target: ERK5 (Homo sapiens, UniProt Q13164)
Description: as §1, §2, §3, §4, §5, §6

[8] = target: ERK8 (Homo sapiens, UniProt Q8TD08)
Sequence of ERK8 (Q8TD08 whole entry): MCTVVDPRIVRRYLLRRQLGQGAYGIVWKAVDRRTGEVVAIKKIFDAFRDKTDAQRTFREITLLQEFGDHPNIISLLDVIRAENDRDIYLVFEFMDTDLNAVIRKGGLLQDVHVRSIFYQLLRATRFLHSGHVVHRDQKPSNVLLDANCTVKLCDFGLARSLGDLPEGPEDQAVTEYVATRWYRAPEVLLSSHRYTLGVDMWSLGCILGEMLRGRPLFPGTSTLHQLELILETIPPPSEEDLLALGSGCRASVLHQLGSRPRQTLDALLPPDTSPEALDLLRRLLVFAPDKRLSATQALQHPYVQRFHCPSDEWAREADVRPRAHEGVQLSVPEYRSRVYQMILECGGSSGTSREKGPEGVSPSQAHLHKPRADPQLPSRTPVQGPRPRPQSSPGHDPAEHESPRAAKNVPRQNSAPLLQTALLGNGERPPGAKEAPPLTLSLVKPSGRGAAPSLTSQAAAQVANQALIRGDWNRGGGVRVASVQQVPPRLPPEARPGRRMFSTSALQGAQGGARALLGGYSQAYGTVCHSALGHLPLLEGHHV
Description: as §1, §2, §3, §4, §5, §6

[9] = target: FGF-R1 (Homo sapiens, UniProt P11362)
Description: as §1, §2, §3, §4, §5, §6

[10] = target: HER4 (Homo sapiens, UniProt Q15303)
Description: as §1, §2, §3, §4, §5, §6

[11] = target: HIPK1 (Homo sapiens, UniProt Q86Z02)
Description: as §1, §2, §3, §4, §5, §6

[12] = target: IRR (Homo sapiens, UniProt P14616)
Sequence of IRR (P14616 27-1297): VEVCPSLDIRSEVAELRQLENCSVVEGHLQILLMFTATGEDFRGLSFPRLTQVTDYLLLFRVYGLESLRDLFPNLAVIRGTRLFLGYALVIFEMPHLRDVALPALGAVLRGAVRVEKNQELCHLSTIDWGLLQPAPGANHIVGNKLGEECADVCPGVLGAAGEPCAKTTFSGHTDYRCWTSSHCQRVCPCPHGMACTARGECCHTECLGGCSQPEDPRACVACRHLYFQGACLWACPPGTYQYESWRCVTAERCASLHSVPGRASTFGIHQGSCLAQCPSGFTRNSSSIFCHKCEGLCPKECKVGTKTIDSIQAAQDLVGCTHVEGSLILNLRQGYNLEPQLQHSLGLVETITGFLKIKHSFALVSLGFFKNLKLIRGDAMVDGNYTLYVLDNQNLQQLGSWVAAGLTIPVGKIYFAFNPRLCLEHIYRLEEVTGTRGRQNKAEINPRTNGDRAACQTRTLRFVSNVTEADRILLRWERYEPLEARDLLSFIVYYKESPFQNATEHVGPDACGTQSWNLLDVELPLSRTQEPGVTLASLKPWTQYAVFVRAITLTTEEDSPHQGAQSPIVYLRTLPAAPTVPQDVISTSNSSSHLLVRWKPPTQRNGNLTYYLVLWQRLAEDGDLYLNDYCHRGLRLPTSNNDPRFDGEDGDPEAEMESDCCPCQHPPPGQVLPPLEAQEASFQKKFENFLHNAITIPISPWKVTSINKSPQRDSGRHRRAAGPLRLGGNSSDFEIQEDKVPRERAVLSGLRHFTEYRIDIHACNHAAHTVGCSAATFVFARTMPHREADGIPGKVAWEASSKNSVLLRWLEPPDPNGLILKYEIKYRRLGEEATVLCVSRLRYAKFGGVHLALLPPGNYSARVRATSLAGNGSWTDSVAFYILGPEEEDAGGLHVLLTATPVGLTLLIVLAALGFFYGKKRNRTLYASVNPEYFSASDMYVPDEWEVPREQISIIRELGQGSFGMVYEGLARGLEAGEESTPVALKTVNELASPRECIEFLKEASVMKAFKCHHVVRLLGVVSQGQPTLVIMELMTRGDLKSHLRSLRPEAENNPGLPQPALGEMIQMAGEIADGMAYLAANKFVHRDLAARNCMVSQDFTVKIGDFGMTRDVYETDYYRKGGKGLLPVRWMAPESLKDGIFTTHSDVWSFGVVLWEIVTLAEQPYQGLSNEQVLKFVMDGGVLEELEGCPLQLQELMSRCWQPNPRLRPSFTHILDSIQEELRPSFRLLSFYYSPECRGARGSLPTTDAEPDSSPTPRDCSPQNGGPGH
Description: as §1, §2, §3, §4, §5, §6

[13] = target: JNK1 (Homo sapiens, UniProt P45983)
Description: as §1, §2, §3, §4, §5, §6

[14] = target: Lck (Homo sapiens, UniProt P06239)
Sequence of Lck (P06239 whole entry): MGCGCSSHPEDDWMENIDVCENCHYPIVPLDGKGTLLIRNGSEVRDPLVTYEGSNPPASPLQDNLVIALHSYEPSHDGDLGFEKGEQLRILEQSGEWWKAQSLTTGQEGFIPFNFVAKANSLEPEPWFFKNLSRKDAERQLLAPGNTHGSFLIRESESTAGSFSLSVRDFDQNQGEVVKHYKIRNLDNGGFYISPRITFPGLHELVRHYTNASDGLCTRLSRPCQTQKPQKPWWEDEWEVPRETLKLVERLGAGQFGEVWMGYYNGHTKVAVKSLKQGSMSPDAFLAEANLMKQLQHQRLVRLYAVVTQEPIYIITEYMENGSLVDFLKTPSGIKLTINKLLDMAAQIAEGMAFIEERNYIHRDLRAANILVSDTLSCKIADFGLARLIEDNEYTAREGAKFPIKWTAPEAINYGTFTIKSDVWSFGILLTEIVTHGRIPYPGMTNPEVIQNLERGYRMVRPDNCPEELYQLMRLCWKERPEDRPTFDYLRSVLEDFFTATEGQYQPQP
Description: as §1, §2, §3, §4, §5, §6

[15] = target: MEKK1 (Homo sapiens, UniProt Q13233)
Description: as §1, §2, §3, §4, §5, §6

[16] = target: MINK1 (Homo sapiens, UniProt Q8N4C8)
Description: as §1, §2, §3, §4, §5, §6

[17] = target: MKK1 (Homo sapiens, UniProt Q02750)
Description: as §1, §2, §3, §4, §5, §6

[18] = target: MKK2 (Homo sapiens, UniProt P36507)
Description: as §1, §2, §3, §4, §5, §6

[19] = target: MLK1 (Homo sapiens, UniProt P80192)
Description: as §1, §2, §3, §4, §5, §6

[20] = target: MST2 (Homo sapiens, UniProt Q13188)
Description: as §1, §2, §3, §4, §5, §6

[21] = target: NEK6 (Homo sapiens, UniProt Q9HC98)
Description: as §1, §2, §3, §4, §5, §6

[22] = target: OSR1 (Homo sapiens, UniProt O95747)
Description: as §1, §2, §3, §4, §5, §6

[23] = target: PAK2 (Homo sapiens, UniProt Q13177)
Description: as §1, §2, §3, §4, §5, §6

[24] = target: PAK6 (Homo sapiens, UniProt Q9NQU5)
Description: as §1, §2, §3, §4, §5, §6

[25] = target: PDGFRA (Homo sapiens, UniProt P16234)
Description: as §1, §2, §3, §4, §5, §6

[26] = target: PKCz (Homo sapiens, UniProt Q05513)
Description: as §1, §2, §3, §4, §5, §6

[27] = target: PKD1 (Homo sapiens, UniProt Q15139)
Description: as §1, §2, §3, §4, §5, §6

[28] = target: PRAK (Homo sapiens, UniProt Q8IW41)
Description: as §1, §2, §3, §4, §5, §6

[29] = target: RSK2 (Homo sapiens, UniProt P51812)
Sequence of RSK2 (P51812 whole entry): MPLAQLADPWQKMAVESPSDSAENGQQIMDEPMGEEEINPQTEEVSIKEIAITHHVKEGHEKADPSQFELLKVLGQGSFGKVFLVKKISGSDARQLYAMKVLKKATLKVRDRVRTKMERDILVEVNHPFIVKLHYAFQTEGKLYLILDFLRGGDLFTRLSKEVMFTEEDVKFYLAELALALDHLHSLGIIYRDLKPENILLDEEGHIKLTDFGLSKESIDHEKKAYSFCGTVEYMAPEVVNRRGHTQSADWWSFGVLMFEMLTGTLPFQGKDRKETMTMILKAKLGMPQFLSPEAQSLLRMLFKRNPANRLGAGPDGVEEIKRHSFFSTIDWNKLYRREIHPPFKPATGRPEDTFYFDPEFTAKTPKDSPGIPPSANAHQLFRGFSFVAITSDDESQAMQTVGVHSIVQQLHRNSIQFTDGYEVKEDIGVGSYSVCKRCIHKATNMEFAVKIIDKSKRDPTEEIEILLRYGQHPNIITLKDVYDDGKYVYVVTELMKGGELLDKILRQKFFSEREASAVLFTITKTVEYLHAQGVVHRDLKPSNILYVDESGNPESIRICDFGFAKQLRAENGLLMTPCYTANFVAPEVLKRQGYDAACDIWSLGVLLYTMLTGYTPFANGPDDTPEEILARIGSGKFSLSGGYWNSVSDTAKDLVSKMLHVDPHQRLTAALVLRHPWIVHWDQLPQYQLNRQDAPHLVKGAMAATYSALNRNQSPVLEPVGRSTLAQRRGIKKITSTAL
Description: as §1, §2, §3, §4, §5, §6

[30] = target: S6K1 (Homo sapiens, UniProt P23443)
Description: as §1, §2, §3, §4, §5, §6

[31] = target: TAO1 (Homo sapiens, UniProt Q7L7X3)
Description: as §1, §2, §3, §4, §5, §6

[32] = target: TGFBR1 (Homo sapiens, UniProt P36897)
Description: as §1, §2, §3, §4, §5, §6

[33] = target: TTBK1 (Homo sapiens, UniProt Q5TCY1)
Description: as §1, §2, §3, §4, §5, §6

[34] = target: TTK (Homo sapiens, UniProt P33981)
Sequence of TTK (P33981 whole entry): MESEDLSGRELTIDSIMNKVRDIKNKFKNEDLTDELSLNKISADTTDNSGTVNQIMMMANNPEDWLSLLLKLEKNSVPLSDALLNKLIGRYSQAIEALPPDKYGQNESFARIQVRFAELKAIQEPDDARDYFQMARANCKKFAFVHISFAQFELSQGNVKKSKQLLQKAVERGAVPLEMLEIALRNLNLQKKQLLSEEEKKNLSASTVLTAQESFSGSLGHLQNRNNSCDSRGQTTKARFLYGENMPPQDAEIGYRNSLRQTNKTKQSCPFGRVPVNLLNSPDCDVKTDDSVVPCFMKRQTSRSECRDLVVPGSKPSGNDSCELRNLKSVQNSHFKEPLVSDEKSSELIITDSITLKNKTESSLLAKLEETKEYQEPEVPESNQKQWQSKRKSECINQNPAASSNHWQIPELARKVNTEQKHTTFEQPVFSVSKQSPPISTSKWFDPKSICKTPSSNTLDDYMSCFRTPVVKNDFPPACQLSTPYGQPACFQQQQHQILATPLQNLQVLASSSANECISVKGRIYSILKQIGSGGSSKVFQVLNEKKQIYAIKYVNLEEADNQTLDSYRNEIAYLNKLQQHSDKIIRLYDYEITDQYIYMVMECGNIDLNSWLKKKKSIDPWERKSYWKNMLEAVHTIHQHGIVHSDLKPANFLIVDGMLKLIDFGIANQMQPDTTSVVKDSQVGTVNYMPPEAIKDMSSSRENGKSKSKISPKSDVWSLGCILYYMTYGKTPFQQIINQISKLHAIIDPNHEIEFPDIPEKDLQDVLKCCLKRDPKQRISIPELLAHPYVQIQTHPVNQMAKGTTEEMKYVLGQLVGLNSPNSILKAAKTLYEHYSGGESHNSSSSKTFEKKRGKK
Description: as §1, §2, §3, §4, §5, §6

[35] = target: ULK1 (Homo sapiens, UniProt O75385)
Description: as §1, §2, §3, §4, §5, §6

CN1C2CC1CN(c1ccc(Nc3ncc4ccn(CC5CCOCC5)c4n3)cc1)C2 [Compound 24]
% activity remaining [1]: 56% | % activity remaining [2]: 82% | % activity remaining [3]: 56% | % activity remaining [4]: 75% | % activity remaining [5]: 76% | % activity remaining [6]: 98% | % activity remaining [7]: 102% | % activity remaining [8]: 76% | % activity remaining [9]: 81% | % activity remaining [10]: 74% | % activity remaining [11]: 82% | % activity remaining [12]: 94% | % activity remaining [13]: 97% | % activity remaining [14]: 67% | % activity remaining [15]: 63% | % activity remaining [16]: 79% | % activity remaining [17]: 71% | % activity remaining [18]: 91% | % activity remaining [19]: 33% | % activity remaining [20]: 91% | % activity remaining [21]: 98% | % activity remaining [22]: 70% | % activity remaining [23]: 107% | % activity remaining [24]: 118% | % activity remaining [25]: 90% | % activity remaining [26]: 118% | % activity remaining [27]: 54% | % activity remaining [28]: 83% | % activity remaining [29]: 73% | % activity remaining [30]: 78% | % activity remaining [31]: 97% | % activity remaining [32]: 75% | % activity remaining [33]: 103% | % activity remaining [34]: 99% | % activity remaining [35]: 77%

Cc1cc(=O)n(C2CCCC2)c2nc(Nc3ccc(N4CC5CC(C4)N5C)cc3)ncc12 [Compound 9]
% activity remaining [1]: 41% | % activity remaining [2]: 91% | % activity remaining [3]: 67% | % activity remaining [4]: 57% | % activity remaining [5]: 77% | % activity remaining [6]: 97% | % activity remaining [7]: 80% | % activity remaining [8]: 47% | % activity remaining [9]: 56% | % activity remaining [10]: 118% | % activity remaining [11]: 88% | % activity remaining [12]: 70% | % activity remaining [13]: 47% | % activity remaining [14]: 64% | % activity remaining [15]: 85% | % activity remaining [16]: 30% | % activity remaining [17]: 108% | % activity remaining [18]: 94% | % activity remaining [19]: 21% | % activity remaining [20]: 62% | % activity remaining [21]: 105% | % activity remaining [22]: 67% | % activity remaining [23]: 97% | % activity remaining [24]: 78% | % activity remaining [25]: 57% | % activity remaining [26]: 110% | % activity remaining [27]: 20% | % activity remaining [28]: 99% | % activity remaining [29]: 49% | % activity remaining [30]: 85% | % activity remaining [31]: 91% | % activity remaining [32]: 92% | % activity remaining [33]: 92% | % activity remaining [34]: 54% | % activity remaining [35]: 23%
